Measured values from patent US8624027B2, “Combination therapy for treating cancer and diagnostic assays for use therein” (AbbVie Inc., priority 2005, dated 2014).
Where two headings read alike, the source gives them in different places. One block for each molecule: values may come before it.

Tests used:
[1] = Pharmacokinetic evaluation in rat; type: in vivo; conditions: male, Sprague-Dawley, plasma
Procedure, shortened: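 Male Sprague-Dawley rats (n=3/group) received a single 2 mg/kg IV (jugular slow bolus) or 5 mg/kg oral gavage dose in 10% DMSO/PEG-400; tail-vein plasma sampled to 24 h. Acetonitrile-precipitated plasma quantified by LC-MS/MS (LOQ 0.01 μg/mL); AUC0-∞ by linear trapezoidal rule plus Ct/β extrapolation.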

[2] = system: NCI-H146 human small cell lung carcinoma cells; experiment: Cellular efficacy in human tumor cell line (MTS viability assay); type: cell-based; conditions: NCI-H146, 10% human serum, 48 hours
Procedure, shortened: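 Cells plated at 50,000/well in medium with 10% human serum in place of FBS. Treated with 2-fold serial dilutions from 10 μM to 0.020 μM, in duplicate, at least 3 separate runs. Viable cells measured by MTS after 48 h of compound exposure.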

Bcl-XL protein = Bcl-XL protein (Homo sapiens, UniProt Q07817); experiment: Bcl-XL binding affinity, fluorescence polarization with fluorescein-labeled BAD peptide; conditions: Wang's equation, read-out: Target Binding Affinity Ki (Bcl-XL)
Protocol: A mixture comprising 125 μL per well of assay buffer (20 mM phosphate buffer (pH 7.4), 1 mM EDTA, 50 mM NaCl, 0.05% PF-68), 6 nM of Bcl-XL protein (prepared as described in Science 1997, 275, 983-986), 1 nM fluorescein-labeled BAD peptide (prepared in-house) and the DMSO solution of the compound was shaken for 2 minutes and placed in a LJL Analyst (LJL Bio Systems, CA). A negative control (DMSO, 15 nM BAD peptide, assay buffer) and a positive control (DMSO, 1 nM BAD peptide, 6 nM Bcl-XL, assay buffer) were used to determine the range of the assay. Polarization was measured at room temperature using a continuous Fluorescein lamp (excitation 485 nm, emission 530 nm). Percentage of inhibition was determined by (1-((mP value of well-negative control)/range))×100%.
Ki values shown in the tables below were determined using Wang's equation (Wang Z X., An Exact Mathematical Expression For Describing Competitive Binding Of Two Different Ligands To A Protein Molecule. FEBS Lett. 1995; 360:111-4)).

Bcl-2 protein = biological target: T1, Bcl-2 protein (Homo sapiens, UniProt P10415, DELINS35-91DVEENRTEAPEGTESE, form not given); experiment: Bcl-2 binding affinity, fluorescence polarization with fluorescein-labeled BAX peptide; conditions: Wang's equation, read-out: Target Binding Affinity Ki (Bcl-2)
T1 construct: fused on or other part: A short piece of the Bcl-xL (Q07817) loop replaces Bcl-2 loop residues 35-91; The C-terminal membrane anchor is absent

HCT116 cells = experiment: Aurora inhibitors in combination with ABT-263, cell viability (CellTiter-GLO); type: cell-based, human; conditions: 1 μM ABT-263, 72 hours; MLN8054 at Aurora A-selective concentrations (<5 μM)
Protocol: 24 hours post-transfection, cells were treated with ABT-263 in dose response, and cell viability was determined 72 hours after the addition of ABT-263. […] MLN8054 (FIG. 9C) or AZD1152 (FIG. 9D) were tested in combination with DMSO or 1 μM ABT-263 in HCT116 cells. Cell viability was determined 72 hours after treatment. […] EJ1 (FIG. 9F) or HCT116 (FIG. 9G) cells were transfected with a luciferase siRNA or the same set of siRNAs against Bcl-2, Bcl-XL, or Mcl-1 siRNAs as in FIG. 9E. 24 hours post-transfection, cells were treated with different amounts of AZD1152. Cell viability was determined 72 hours after exposure to AZD1152. […] Cell viability was determined 72 hours post-transfection. In all figures, cell viability was expressed as the percentage of untransfected, DMSO-treated control cells. The red viability curve represents a synergistic combination.
(§1) Generally, cells were seeded at >90% viability (as determined by trypan blue exclusion) into 96-well plates overnight, treated with compounds or siRNAs for indicated duration, and the overall cell viability was determined by measuring luminescence.

[3] = system: tumor cell lines (D54MG, NCI-H460, A549, PC3, EJ1, HCT116, DLD1, SW620, 786-O); experiment: Combination screen of VX-680, cell viability with Bliss additivism analysis; type: cell-based, human; conditions: VX-680 with ABT-263 in dose-response; viability 3 days after exposure
Protocol: Cell viability was determined 3 days after exposure to the combination regimens. Synergy or antagonism of drug combinations was determined using the Bliss additivism model of drug-drug interactions (See, Berenbaum, M. C., Cancer Res 35, 269-335 (1981)). The value in excess of Bliss additivism for each dose was determined for all combinations and defined as follows: >15=synergistic, 0-15=no interaction, <−15=antagonistic. These values are expressed in a heatmap using SPOTFIRE® (TIBCO®) data analysis software where synergy is indicated in red, no interaction in gray, and antagonism in blue. […] These values are not applicable for Bliss analysis and were excluded from the heatmap. Compounds tested in combination are shown at the right. The targets/mechanisms of action of each of these agents and the corresponding dose responses for the combination screen is summarized in Table A in EXAMPLE 40.
as §1
Combined response scores greater than 15 were considered synergistic. […]

mantle cell lymphoma = experiment: Oral efficacy of EXAMPLE 1 in combination therapy, antitumorigenesis on mantle cell lymphoma; type: in vivo; conditions: without EXAMPLE 1
B-cell lymphoma = experiment: Oral efficacy of EXAMPLE 1 in combination therapy, antitumorigenesis on B-cell lymphoma; type: in vivo; conditions: without EXAMPLE 1

Chain of Bcl-XL protein (Q07817 with tags, fused parts or gaps DEL45-84): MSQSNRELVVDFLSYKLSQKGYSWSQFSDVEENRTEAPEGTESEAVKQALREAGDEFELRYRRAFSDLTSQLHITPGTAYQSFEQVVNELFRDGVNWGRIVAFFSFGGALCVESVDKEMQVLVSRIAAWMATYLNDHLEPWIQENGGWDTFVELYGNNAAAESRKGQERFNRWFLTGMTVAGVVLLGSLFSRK
T1 sequence (P10415 with tags, fused parts or gaps with the stated changes): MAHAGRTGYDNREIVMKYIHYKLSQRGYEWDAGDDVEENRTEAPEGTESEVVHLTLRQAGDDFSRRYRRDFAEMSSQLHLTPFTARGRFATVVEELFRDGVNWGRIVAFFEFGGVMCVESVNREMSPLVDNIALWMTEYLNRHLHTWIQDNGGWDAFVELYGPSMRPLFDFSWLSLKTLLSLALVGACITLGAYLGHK

AUC ([1]; 5 mg/kg, oral, Table 2, read-out: Pharmacokinetic area under the plasma concentration curve (rat) AUC): 1.66 µM·h
Cmax ([1]; 5 mg/kg, oral, Table 2, read-out: Pharmacokinetic peak plasma concentration (rat) Cmax): 290 nM
AUC(0-inf) ([1]; single 5 mg/kg oral dose, Table 1, read-out: Pharmacokinetic area under the plasma concentration Curve (rat) AUC0-∞): 1.66 µM·h
EC50 ([2]; Table 1, read-out: NCI-H146 Cellular Efficacy EC50): 82.7 nM
EC50 ([2]; Table 2, read-out: NCI-H146 Cellular Efficacy H146, EC50): 83 nM
Ki (Bcl-XL protein): ≤ 1 nM
Ki (Bcl-2 protein): ≤ 1 nM
Molecule: O=C(NS(=O)(=O)c1ccc(N[C@H](CCN2CCOCC2)CSc2ccccc2)c(S(=O)(=O)C(F)(F)F)c1)c1ccc(N2CCN(Cc3ccccc3-c3ccc(Cl)cc3)CC2)cc1 [Example 39, N-(4-(4-((4′-chloro(1,1′-biphenyl)-2-yl)methyl)-1-piperazinyl)benzoyl)-4-(((1R)-3-(4-morpholinyl)-1-((phenylsulfanyl)methyl)propyl)amino)-3-((trifluoromethyl)sulfonyl)benzenesulfonamide]

Molecule: O=C(O)c1ccc(Nc2ncc3c(n2)-c2ccc(Cl)cc2C(c2c(F)cccc2F)=NC3)cc1 [MLN8054]
synergy in combination with ABT-263 (cell viability) (HCT116 cells): no synergy

Molecule: Cc1cc(Nc2cc(N3CCN(C)CC3)nc(Sc3ccc(NC(=O)C4CC4)cc3)n2)[nH]n1 [VX-680, cyclopropane carboxylic acid of {4-[4-(4-methyl-piperazin-1-yl)-6-(5-methyl-2H-pyrazol-3-ylamino)-pyrimidin-2-ylsulphanyl]-phenyl}-amide]
Bliss analysis of cell viability, combination with ABT-263 [3]: synergistic (>15=synergistic)

Molecule: CC(C)C[C@H](NC(=O)[C@H](Cc1ccccc1)NC(=O)c1cnccn1)B(O)O [bortexomib, reference compound]
tumor regressions, agent alone (mantle cell lymphoma): no tumor regressions

Molecule: CO[C@H]1C[C@@H]2CC[C@@H](C)[C@@](O)(O2)C(=O)C(=O)N2CCCC[C@H]2C(=O)O[C@H]([C@H](C)C[C@@H]2CC[C@@H](O)[C@H](OC)C2)CC(=O)[C@H](C)/C=C(\C)[C@@H](O)[C@@H](OC)C(=O)[C@H](C)C[C@H](C)/C=C/C=C/C=C/1C [rapamycin, reference compound]
tumor regressions, agent alone (B-cell lymphoma): 10%

Molecule: rituximab: antibody, RITUXAN® (rituximab) [reference compound]
tumor regressions, agent alone (B-cell lymphoma): no tumor regressions
